# Assay results: patent US7892350B2, “Sacrificial agents for fly ash concrete” (Boral Material Technologies Inc., priority 2003, dated 2011)
# Legend:
# [1] = Paste air entrainment, Maximum air protocol; conditions: for Air entrained at 66 min: Air 30 (0.0125 wt %)/X/ButOH=1/4/4, X = the labelled sulfonated SA
# Description: (§1) Preparation of pastes: Pastes were prepared by pouring 400 g of cementitious powder in the 350-400 g of solution (water and additives) in a vessel (8.4 cm dia,×14.5 cm height) while gently stirring with a spatula; the exact quantity of water depends on the selected W/B ratio (see below); rapid hand mixing was continued for 1 minute, followed by intense stirring at 25° C. during 2 min using a hand-held mixer (BRAUN model MR400). The level of air entrained is dependent on the mode of utilisation of the mixer, namely the height of the mixer from the bottom of the vessel and the length of the mixing stroke; the following protocols were adopted.
# (§2) Fluidity measurements: For all air entrainment measurements, the initial fluidity of the paste (without additives) was controlled using the ‘mini-slump’ procedure widely used for paste and grouts. In this protocol, a portion of the paste was transferred into the min-slump cone (a 2¼″ high, 1½″ bottom diameter, ¾″ top diameter cone); excess paste was skimmed-off with a straight; the cone was then raised and the spread diameter of the paste was recorded (average of two measurements). The fluidity is measured at 10 minutes after mixing. The paste is returned to the batch and reserved for subsequent AE measurements. The fluidity of the paste (without SA and AEA) is adjusted by changing the amount of water (water/cementitious ratio) which yields a spread diameter of 115±5 mm. The latter is monitored regularly.
# (§3) Air entrainment measurements: For air entrainment measurements, a portion of the paste was transferred to overfill a Plexiglas cylinder (3¾ inches height, 2 inches interior diameter), which was then levelled flush to the top of the cylinder with a straight edge. The mass of the filled cylinder, minus the weight of the empty cylinder, is then recorded and used to calculate the amount of air according to the following formula: […]
# (§4) This procedure was carried out at three times at 30 min. intervals (6, 36 and 66 min); the paste was let to stand at rest between measurements, and was stirred gently by hand for one minute prior to the subsequent air entrainment measurements.
# Other combinations of air entrainment agents and sacrificial agents were prepared as stock solutions following the procedure outlined above, adjusting the weights of the various components to achieve the desired component ratios.
# [2] = Paste air entrainment, Minimum air protocol
# Description: as §1
# Minimum air protocol: The BRAUN mixer is positioned at 1.0 inch from the bottom of the mixing vessel and the up-down motion of the mixer is limited to a 1.0 inch displacement; this provided ‘minimum air’ entrained air levels and is later referred to as ‘Minimum air protocol’ (Results reported in Table 6, col. 1 and Table 7).
# as §2, §3, §4
# Typical mixture compositions for air entrainment measurements in pastes containing a single additive using ‘Minimum air protocol’ (results shown in Table 6, col. 1): […]
# [3] = Adsorption/precipitation of SA or AEA in 10 wt % aqueous fly ash or cement slurries at pH 12.5; assay type: physicochemical; conditions: initial SA 3 mM
# Description: Adsorption/Precipitation of Sacrificial Agents (SA) or Air Entrainment Agents (AEA) in 10 wt % Aqueous Fly Ash Slurries at pH 12.5:
# (§5) The pH of the solutions were adjusted to 12.5 with NaOH.
# Adsorption/Precipitation in FA or Cement Slurries: In this protocol, aqueous slurries containing 10 wt % FA or cement were prepared as described above, except that in this case, the cement was added directly into a solution of the SA or AEA in the following proportions: 3.0 g cement or FA, and 27 g of 3 mM sacrificial agent, or 27 g of 1050 mg/l AEA; the latter were prepared in the same way as in the precipitation test above. The residual (soluble) SA or AEA content in the solution was also determined by UV or COD.
# [4] = Precipitation in slurry extract or leachate; assay type: physicochemical; conditions: pH 12.5, entries in parentheses
# Description: as §5
# Precipitation in slurry extract or leachate: To perform this test, FA or cement leachate were prepared in advance, by filtering two liters of a 10 wt % FA, or cement, slurry in 0.03N NaOH which had been left to stand under slow agitation for 30 min; 2.5 g of the filtrate solution was mixed with 22.5 g of the SA or AEA solution in a 50 ml polypropylene centrifuge tube; the latter was shaken vigorously in an orbital shaker (Eberbach Corporation) for 30 min at room temperature, centrifuged for 5 min and then the supernatant solution was filtered (0.45 μm). The SA or AEA content of the solution was determined using an Ultraviolet-Visible (UV) spectrometer or by COD (Chemical Oxygen Demand) measurement.
# Entries in parentheses: % precipitation when reacted with solutions extracted from the fly ash slurries (Results in Table 5).
compound,measurement,setting,value
"O=S(=O)([O-])c1ccc2ccccc2c1.[Na+] [NS, Sodium 2-Naphthalene sulfonate]",Air entrained at 66 min,[1]; 50:50 fly ash B1 (LOI 4.36%):PCA paste,7 vol %
same,Air entrained at 66 min,[1]; 50:50 fly ash D (LOI […]):PCA paste,18 vol %
same,Air entrained at 66 min,[1]; 50:50 fly ash M2 (LOI 5.34%):PCA paste,5 vol %
same,Air entrained,"[1]; PCA cement paste, 0.0125% SA or AEA alone, Maximum air protocol",2 vol %
same,Air entrained at 66 min,"[1]; PCA paste, no fly ash",13 vol %
same,Air entrained,"[2]; 50:50 fly ash B1 (LOI 4.36%):PCA paste, 0.1 wt % Air 30 alone or with 0.05 wt % of the SA",4 vol %
same,Air entrained,"[2]; 50:50 fly ash C1 (LOI 1.62%):PCA paste, 0.1 wt % Air 30 alone or with 0.05 wt % of the SA",12 vol %
same,Air entrained,"[2]; 50:50 fly ash D (LOI […]):PCA paste, 0.1 wt % Air 30 alone or with 0.05 wt % of the SA",6 vol %
same,Air entrained,"[2]; 50:50 fly ash M1 (LOI […]):PCA paste, 0.1 wt % Air 30 alone or with 0.05 wt % of the SA",4 vol %
same,Air entrained,"[2]; 50:50 fly ash M2 (LOI 5.34%):PCA paste, 0.1 wt % Air 30 alone or with 0.05 wt % of the SA",3 vol %
same,Air entrained,"[2]; 50:50 fly ash M3 (LOI 11.33%):PCA paste, 0.1 wt % Air 30 alone or with 0.05 wt % of the SA",4 vol %
same,Air entrained,"[2]; 50:50 fly ash R (LOI […]):PCA paste, 0.1 wt % Air 30 alone or with 0.05 wt % of the SA",6 vol %
same,Air entrained,"[2]; PCA cement paste, 0.1% SA or AEA alone, Minimum air protocol",0 vol %
same,Average of air entrained,"[2]; over the fly ash:PCA pastes of Table 7, 0.1 wt % Air 30 alone or with 0.05 wt % of the SA",5%
same,Adsorption (wt % Adsorbed),"[3]; 10 wt % PCA cement slurry, Air 30/Air 40 0.105 wt %",3 wt %
same,Adsorption (wt % Adsorbed),"[3]; 10 wt % fly ash B1 (LOI 4.36%) slurry, Air 30/Air 40 0.105 wt %",8 wt %
same,Adsorption (wt % Adsorbed),"[3]; 10 wt % fly ash C1, class C (LOI 1.62%) slurry, Air 30/Air 40 0.105 wt %",70 wt %
same,Adsorption (wt % Adsorbed),[3]; 10 wt % fly ash C2 (LOI 3.32%) slurry,5 wt %
same,Adsorption (wt % Adsorbed),"[3]; 10 wt % fly ash D, class C (LOI […]) slurry, Air 30/Air 40 0.105 wt %",59 wt %
same,Adsorption (wt % Adsorbed),"[3]; 10 wt % fly ash M1 (LOI […]) slurry, Air 30/Air 40 0.105 wt %",11 wt %
same,Adsorption (wt % Adsorbed),"[3]; 10 wt % fly ash M2 (LOI 5.34%) slurry, Air 30/Air 40 0.105 wt %",8 wt %
same,Adsorption (wt % Adsorbed),"[3]; 10 wt % fly ash M3 (LOI 11.33%) slurry, Air 30/Air 40 0.105 wt %",10 wt %
same,Adsorption (wt % Adsorbed),[3]; 10 wt % fly ash N (LOI 0.30%) slurry,5 wt %
same,Adsorption (wt % Adsorbed),"[3]; 10 wt % fly ash R (LOI […]) slurry, Air 30/Air 40 0.105 wt %",24 wt %
same,Precipitation (wt % precipitated),[4]; solution extracted from 10 wt % PCA cement slurry,1 wt %
same,Precipitation (wt % precipitated),[4]; solution extracted from 10 wt % fly ash B1 (LOI 4.36%) slurry,0 wt %
same,Precipitation (wt % precipitated),"[4]; solution extracted from 10 wt % fly ash C1, class C (LOI 1.62%) slurry",10 wt %
same,Precipitation (wt % precipitated),[4]; solution extracted from 10 wt % fly ash C2 (LOI 3.32%) slurry,0 wt %
same,Precipitation (wt % precipitated),"[4]; solution extracted from 10 wt % fly ash D, class C (LOI […]) slurry",1 wt %
same,Precipitation (wt % precipitated),[4]; solution extracted from 10 wt % fly ash M1 (LOI […]) slurry,0 wt %
same,Precipitation (wt % precipitated),[4]; solution extracted from 10 wt % fly ash M2 (LOI 5.34%) slurry,0 wt %
same,Precipitation (wt % precipitated),[4]; solution extracted from 10 wt % fly ash M3 (LOI 11.33%) slurry,0 wt %
same,Precipitation (wt % precipitated),[4]; solution extracted from 10 wt % fly ash N (LOI 0.30%) slurry,0 wt %
same,Precipitation (wt % precipitated),[4]; solution extracted from 10 wt % fly ash R (LOI […]) slurry,0 wt %
